Tested on: CKD mice
Assay: Aorta immunofluorescence and subcellular (cytosolic) fractionation in CKD mice
Type: in vivo, mouse
Method: 8-week-old wild type C57BL/6J mice (n=20, female) received the adenine-supplemented diet for 6 weeks to induce CKD, followed by two additional weeks of the diet containing 1.8% phosphate and 0.2% adenine to induce medial calcinosis. Mice were split into two groups (10 per group). The first group received daily tyrphostin AG1478 (10 mg/kg mouse), while the other group received vehicle (1% w/v, carboxymethylcellulose sodium salt). At study endpoint, the animals were euthanized, and the aortas were resected.
A subcellular protein fractionation kit for tissue (Thermofisher, 87790) was used to isolate cellular cytosolic fraction from the resected aortas, using the manufacturer's protocol. Briefly, the tissues were minced and homogenized using a grinder. The samples were then incubated in a cytoplasmic extraction buffer for 10 min at 4° C., followed by centrifugation at 1000×g for 5 min. The supernatants yielded the cytosolic fraction. To obtain sufficient protein for analyses, two aortas were pooled per data point.
VSMCs, osteoblasts, isolated EVs (either from cells or mouse aortas), and matrix vesicles (from osteoblasts) were lysed in RIPA lysis and extraction buffer supplemented with protease inhibitor. After adding Laemmli SDS-sample buffer (1:4 v/v, Boston BioProducts, BP-110R) to each lysate, the samples were denatured at 100° C. for 10 min, loaded into 7.5-12% 1-mm SDS-PAGE gel (15 to 20 μg protein per lane), and run at 170 V. The proteins were then transferred to Trans-Blot turbo nitrocellulose membranes (BIO-RAD, 1704158) at 25 V for 7 min.
To quantify the total protein, the membranes were stained using 2% w/v Ponceau stain (Alfa Aesar, AAJ6074409) for 20 min, followed by one wash with 5% acetic acid and milliQ water for 5 min. After imaging, the intensity of each lane was measured in ImageJ for total protein normalization. Membranes were blocked with 5% w/v bovine serum albumin (HyClone, SH30574.01) in TBS-Tween (1×) for 1 hour. […] The protein bands were visualized with Odyssey CLx scanner (Li-Cor), and quantified using Image Studio Lite software (Li-Cor). […]

[1] = treated CKD animals compared to CKD group

`COc1cc2ncnc(Nc3cccc(Cl)c3)c2cc1OC` [AG1478, tyrphostin AG1478] was tested, and the “CAV1, EGFR, and TNAP immunofluorescence in the aorta” value (qualitative, CKD mice treated, compared to chow-fed controls) was “elevation of all three proteins”, the “cytosolic CAV1 protein in aorta” value [1] was “higher” and the “cytosolic TNAP protein in aorta” value [1] was “higher”.

Source: patent US11612601B1, “Targeting epidermal growth factor to treat vascular calcification” (THE FLORIDA INTERNATIONAL UNIVERSITY BOARD OF TRUSTEES, priority 2022, dated 2023)
